Data: US7585895B2, “Therapeutic substituted cyclopentanes” (Allergan, Inc., priority 2005, dated 2009)

Assays:
hTP = molecular target: T1, hTP (Homo sapiens, UniProt P21731); test: FLIPR calcium signal, TP; type: cell-based; settings: HEK-293(EBNA)
T1 construct: expressed in transfected cells
T1 sequence (P21731 1-343): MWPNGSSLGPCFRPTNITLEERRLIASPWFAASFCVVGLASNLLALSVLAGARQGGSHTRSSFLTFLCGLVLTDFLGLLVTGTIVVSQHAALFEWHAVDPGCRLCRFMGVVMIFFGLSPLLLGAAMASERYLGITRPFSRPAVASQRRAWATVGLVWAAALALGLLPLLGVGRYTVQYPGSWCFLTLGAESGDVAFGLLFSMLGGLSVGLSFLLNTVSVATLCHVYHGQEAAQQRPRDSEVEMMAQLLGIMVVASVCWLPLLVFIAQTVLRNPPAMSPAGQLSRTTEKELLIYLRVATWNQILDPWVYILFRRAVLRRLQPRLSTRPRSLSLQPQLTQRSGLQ
Experimental: (§1) HEK-293(EBNA) cells, stably expressing one type or subtype of recombinant human prostaglandin receptors (prostaglandin receptors expressed: hDP/Gqs5; hEP1; hEP2/Gqs5; hEP3A/Gqi5; hEP4/Gqs5; hFP; hIP; hTP), were cultured in 100 mm culture dishes in high-glucose DMEM medium containing 10% fetal bovine serum, 2 mM 1-glutamine, 250 μg/ml geneticin (G418) and 200 μg/ml hygromycin B as selection markers, and 100 units/ml penicillin G, 100 μg/ml streptomycin and 0.25 μg/ml amphotericin B.
(§2) Cells were seeded at a density of 5×10^4 cells per well in Biocoat® Poly-D-lysine-coated black-wall, clear-bottom 96-well plates (Becton-Dickinson) and allowed to attach overnight in an incubator at 37° C. Cells were then washed two times with HBSS-HEPES buffer (Hanks Balanced Salt Solution without bicarbonate and phenol red, 20 mM HEPES, pH 7.4) using a Denley Cellwash plate washer (Labsystems). After 45 minutes of dye-loading in the dark, using the calcium-sensitive dye Fluo-4 AM at a final concentration of 2 μM, plates were washed four times with HBSS-HEPES buffer to remove excess dye leaving 100 μl in each well. Plates were re-equilibrated to 37° C. for a few minutes.
(§3) Cells were excited with an Argon laser at 488 nm, and emission was measured through a 510-570 nm bandwidth emission filter (FLIPR™, Molecular Devices, Sunnyvale, Calif.). Drug solution was added in a 50 μl volume to each well to give the desired final concentration. The peak increase in fluorescence intensity was recorded for each well. On each plate, four wells each served as negative (HBSS-HEPES buffer) and positive controls (standard agonists: BW245C (hDP); PGE2 (HEP1; hEP2/Gqs5; hEP3A/Gqi5; hEP4/Gqs5); PGF2α (hFP); carbacyclin (hIP); U-46619 (hTP), depending on receptor). The peak fluorescence change in each drug-containing well was then expressed relative to the controls.
(§4) Compounds were tested in a high-throughput (HTS) or concentration-response (CoRe) format. In the HTS format, forty-four compounds per plate were examined in duplicates at a concentration of 10^−5 M. To generate concentration-response curves, four compounds per plate were tested in duplicates in a concentration range between 10^−5 and 10^−11 M. The duplicate values were averaged. In either, HTS or CoRe format each compound was tested on at least 3 separate plates using cells from different passages to give an n≧3.

hFP = molecular target: T2, hFP (Homo sapiens, UniProt P43088); test: FLIPR calcium signal, FP; type: cell-based; settings: HEK-293(EBNA)
T2 construct: expressed in transfected cells
T2 sequence (P43088 whole entry): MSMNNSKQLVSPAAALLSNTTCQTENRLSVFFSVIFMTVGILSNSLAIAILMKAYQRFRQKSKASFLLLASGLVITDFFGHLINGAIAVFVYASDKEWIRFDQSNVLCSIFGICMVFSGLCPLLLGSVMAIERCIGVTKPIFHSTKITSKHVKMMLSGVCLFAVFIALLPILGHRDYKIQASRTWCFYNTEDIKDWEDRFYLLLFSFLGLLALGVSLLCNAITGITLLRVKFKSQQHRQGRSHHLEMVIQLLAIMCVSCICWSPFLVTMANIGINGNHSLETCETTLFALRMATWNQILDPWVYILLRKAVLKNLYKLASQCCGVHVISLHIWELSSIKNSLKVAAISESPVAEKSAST
Experimental: as §1, §2, §3, §4

EP2 = EP2 (Homo sapiens, UniProt P43116); test: Competition binding, [3H]PGE2, EP2 (Ki); parameters: expressed in transfected cells; membranes or whole cells; settings: HEK 293 cells stably expressing human EP2, [3H]PGE2
EP2, sequence (P43116 whole entry): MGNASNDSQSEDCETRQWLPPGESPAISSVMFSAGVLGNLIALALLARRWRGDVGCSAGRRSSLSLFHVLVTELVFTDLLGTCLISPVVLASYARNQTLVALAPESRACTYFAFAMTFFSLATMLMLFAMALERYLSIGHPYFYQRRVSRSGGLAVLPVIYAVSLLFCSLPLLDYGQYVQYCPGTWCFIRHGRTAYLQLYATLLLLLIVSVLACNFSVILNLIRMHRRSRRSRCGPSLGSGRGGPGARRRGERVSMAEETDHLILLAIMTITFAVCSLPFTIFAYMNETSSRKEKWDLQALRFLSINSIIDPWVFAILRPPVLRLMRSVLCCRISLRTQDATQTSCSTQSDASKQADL
Experimental: Competition binding experiments were performed in a medium containing Hank's balanced salt solution, Hepes 20 mM, pH 7.3, membranes (˜60 μg protein) or 2×10^5 cells from HEK 293 cells stably expressing human EP2 receptors, [^3H]PGE2 (10 nM) and various concentrations of test compounds in a total volume of 300 μl. Reaction mixtures were incubated at 23° C. for 60 min, and were filtered over Whatman GF/B filters under vacuum. Filters were washed three times with 5 ml ice-cold buffer containing 50 mM Tris/HCl (pH 7.3). Non-specific binding was estimated in the presence of excess unlabeled PGE2 (10 μM). Binding data fitted to the binding model for a single class of binding sites, using nonlinear regression analysis. IC50 values thus obtained were converted to Ki using the equation of Ki=(IC50/(1+[L]/KD) where [L] represents PGE2 concentration (10 nM) and KD the dissociation constant for [^3H]PGE2 at human EP2 receptors (40 nM).
(§5) HEK-293 cells stably expressing the human or feline FP receptor, or EP1, EP2, or EP4 receptors were washed with TME buffer, scraped from the bottom of the flasks, and homogenized for 30 sec using a Brinkman PT 10/35 polytron. TME buffer was added to achieve a final 40 ml volume in the centrifuge tubes (the composition of TME is 100 mM TRIS base, 20 mM MgCl2, […]; 10N HCl is added to achieve a pH of 7.4).
(§6) The cell homogenate was centrifuged at 19000 r.p.m. for 20 min at 4° C using a Beckman Ti-60 rotor. The resultant pellet was resuspended in TME buffer to give a final 1 mg/ml protein concentration, as determined by Biorad assay. Radioligand binding competition assays vs. [^3H-]17-phenyl PGF2α. (5 nM) were performed in a 100 μl volume for 60 min. Binding reactions were started by adding plasma membrane fraction. The reaction was terminated by the addition of 4 ml ice-cold TRIS-HCl buffer and rapid filtration through glass fiber GF/B filters using a Brandel cell harvester. The filters were washed 3 times with ice-cold buffer and oven dried for one hour.
(§7) [^3H-] PGE2 (specific activity 180 Ci mmol) was used as the radioligand for EP receptors. [^3H] 17-phenyl PGF2α, was employed for FP receptor binding studies. Binding studies employing EP1, EP2, EP4 and FP receptors were performed in duplicate in at least three separate experiments. A 200 μl assay volume was used. Incubations were for 60 min at 25° C. and were terminated by the addition of 4 ml of ice-cold 50 mM TRIS-HCl, followed by rapid filtration through Whatman GF/B filters and three additional 4 ml washes in a cell harvester (Brandel). Competition studies were performed using a final concentration of 5 nM [^3H]-PGE2, or 5 nM [^3H] 17-phenyl PGF2αand non-specific binding determined with 10^−5M of unlabeled PGE2, or 17-phenyl PGF2α, according to receptor subtype studied.

EP4 receptors = molecular target: T3, EP4 receptors (Homo sapiens, UniProt P35408); test: Radioligand binding, [3H]PGE2, EP4 (Ki); settings: HEK-293 cells stably expressing EP4, [3H]PGE2
T3 construct: expressed in transfected cells; membrane pellet
T3 sequence (P35408 whole entry): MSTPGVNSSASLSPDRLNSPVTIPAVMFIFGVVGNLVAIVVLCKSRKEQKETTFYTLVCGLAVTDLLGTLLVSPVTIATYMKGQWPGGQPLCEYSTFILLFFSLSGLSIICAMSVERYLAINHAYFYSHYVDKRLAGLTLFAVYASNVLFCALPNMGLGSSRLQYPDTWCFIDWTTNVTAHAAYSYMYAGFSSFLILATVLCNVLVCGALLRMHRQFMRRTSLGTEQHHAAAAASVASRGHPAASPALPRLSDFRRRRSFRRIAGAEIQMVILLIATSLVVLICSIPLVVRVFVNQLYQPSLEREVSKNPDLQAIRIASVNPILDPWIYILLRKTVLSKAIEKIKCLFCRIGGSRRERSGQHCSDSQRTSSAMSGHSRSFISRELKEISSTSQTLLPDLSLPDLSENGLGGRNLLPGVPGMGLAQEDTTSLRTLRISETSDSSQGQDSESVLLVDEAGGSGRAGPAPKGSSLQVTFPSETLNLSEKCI
Experimental: as §5, §6, §7

hEP4/Gqs5 = molecular target: T4, hEP4/Gqs5 (Homo sapiens, UniProt P35408); test: FLIPR calcium signal, EP4; type: cell-based; settings: HEK-293(EBNA); for EC50: read-out: Ca2+ Signal-EC50 (nM) EP4
T4 construct: expressed in transfected cells
T4 sequence (P35408 whole entry): as above
Experimental: as §1, §2, §3, §4

SMILES	Ca2+ Signal-EC50 (nM) TP (hTP)	Ca2+ Signal-EC50 (nM) FP (hFP)	Ki (EP2)	Ki (EP4 receptors)	EC50 (hEP4/Gqs5)	Ca2+ Signal-EC50 (nM) EP4 (hEP4/Gqs5)	BINDING-Ki (nM) EP4 (EP4 receptors)
CCCCCC(O)c1ccc([C@@H]2[C@@H](C/C=C\CCCC(=O)O)[C@@H](Cl)C[C@H]2O)cc1 (stereo partly drawn) [Entry 9, (Z)-7-{(1R,2S,3R,5S)-5-Chloro-3-hydroxy-2-[4-(1-hydroxy-hexyl)-phenyl]-cyclopentyl}-hept-5-enoic acid]	not active	not active	3950 nM	4590 nM	947 nM		
O=C(O)CCCCCC[C@@H]1[C@@H](c2ccc(C(O)CC3CCCCC3)cc2)[C@H](O)C[C@H]1Cl (stereo partly drawn) [Entry 18, 7-{(1R,2S,3R,5R)-5-Chloro-2-[4-(2-cyclohexyl-1-hydroxy-ethyl)-phenyl]-3-hydroxy-cyclopentyl}-heptanoic acid]	not active	not active	2290 nM	4940 nM	> 10000 nM		
CCCCCC(O)c1ccc([C@@H]2[C@@H](C/C=C\CCCC(=O)O)[C@H](F)C[C@H]2O)cc1 (mixture of isomers) [Entry 8, (Z)-7-{(1R,2S,3R,5R)-5-Fluoro-3-hydroxy-2-[4-(1-hydroxy-hexyl)-phenyl]-cyclopentyl}-hept-5-enoic acid]	not active	not active	804 nM	> 10000 nM		not active	
O=C(O)CCCCCC[C@@H]1[C@@H](c2ccc(C(O)Cc3ccccc3)cc2)[C@H](O)C[C@H]1Cl (stereo partly drawn) [Entry 22, 7-{(1 R,2S,3R,5R)-5-Chloro-3-hydroxy-2-[4-(1-hydroxy-2-phenyl-ethyl)-phenyl]-cyclopentyl}-heptanoic acid]	not active	not active	148 nM	> 10000 nM	15800 nM		
O=C(O)CCCCCC[C@@H]1[C@@H](c2ccc(C(O)CCc3ccccc3)cc2)[C@H](O)C[C@H]1Cl (stereo partly drawn) [Entry 24, 7-{(1R,2S,3R,5R)-5-Chloro-3-hydroxy-2-[4-(1-hydroxy-3-phenyl-propyl)-phenyl]-cyclopentyl}-heptanoic acid]	not active	not active	2160 nM	> 10000 nM	> 10000 nM		
CC(C)(C)CCCC(O)c1ccc([C@@H]2[C@@H](CCCCCCC(=O)O)[C@H](Cl)C[C@H]2O)cc1 (mixture of isomers) [Entry 20, 7-{(1R,2S,3R,5R)-5-Chloro-3-hydroxy-2-[4-(1-hydroxy-5,5-dimethyl-hexyl)-phenyl]-cyclopentyl}-heptanoic acid]	not active	not active	3850 nM	3800 nM	10700 nM		
CCCCCC(O)C(C)(C)c1ccc([C@@H]2[C@@H](C/C=C\CCCC(=O)O)[C@H](Cl)C[C@H]2O)cc1 (stereo partly drawn) [Entry 31, (Z)-7-{(1R,2S,3R,5R)-5-Chloro-3-hydroxy-2-[4-(2-hydroxy-1,1-dimethyl-heptyl)-phenyl]-cyclopentyl}-hept-5-enoic acid]	not active	not active	182 nM	5410 nM		not active	
O=C(O)CCC/C=C\C[C@@H]1[C@@H](c2ccc(C(O)Cc3ccccc3)cc2)[C@H](O)C[C@H]1Cl (mixture of isomers) [Entry 21, (Z)-7-{(1R,2S,3R,5R)-5-Chloro-3-hydroxy-2-[4-(1-hydroxy-2-phenyl-ethyl)-phenyl]-cyclopentyl}-hept-5-enoic acid]	not active	not active	77 nM	> 10000 nM	> 10000 nM		
CCCCCC(O)c1ccc([C@@H]2[C@@H](C/C=C\CCCC(=O)O)[C@H](Cl)C[C@H]2O)cc1 (mixture of isomers) [Entry 11, (Z)-7-{(1R,2S,3R,5R)-5-Chloro-3-hydroxy-2-[4-(1-hydroxy-hexyl)-phenyl]-cyclopentyl}-hept-5-enoic acid]	not active	not active	209 nM	> 10000 nM	> 10000 nM		
O=C(O)CCC/C=C\C[C@@H]1[C@@H](c2ccc(C(O)c3ccccc3)cc2)[C@H](O)C[C@H]1Cl (stereo partly drawn) [Entry 28, (Z)-7-{(1R,2S,3R,5R)-5-Chloro-3-hydroxy-2-[4-(hydroxy-phenyl-methyl)-phenyl]-cyclopentyl}-hept-5-enoic acid]	not active	not active	564 nM			not active	not active
CCCC(O)c1ccc([C@@H]2[C@@H](C/C=C\CCCC(=O)O)[C@H](Cl)C[C@H]2O)cc1 (stereo partly drawn) [Entry 26, (Z)-7-{(1R,2S,3R,5R)-5-Chloro-3-hydroxy-2-[4-(1-hydroxy-butyl)-phenyl]-cyclopentyl}-hept-5-enoic acid]	not active	not active	1660 nM	> 10000 nM		not active	
CCCCCCc1ccc([C@@H]2[C@@H](C/C=C\CCCC(=O)O)[C@H](Cl)C[C@H]2O)cc1 [Entry 33, (Z)-7-[(1R,2S,3R,5R)-5-Chloro-2-(4-hexyl-phenyl)-3-hydroxy-cyclopentyl]-hept-5-enoic acid]	not active	not active	83 nM	> 10000 nM	> 10000 nM		
